# Source: ChEMBL document CHEMBL1201862, “PubChem BioAssay data set” (2004)
# Calls of active or inactive are those of the source.
# Tests used:
# [1] = biological target: T1, Cysteine protease ATG4B (Homo sapiens, UniProt Q9Y4P1); type: functional;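 further: Fluorescence-based dose-response confirmation assay measuring inhibition of ATG4B activity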
# T1 sequence (Q9Y4P1 whole entry): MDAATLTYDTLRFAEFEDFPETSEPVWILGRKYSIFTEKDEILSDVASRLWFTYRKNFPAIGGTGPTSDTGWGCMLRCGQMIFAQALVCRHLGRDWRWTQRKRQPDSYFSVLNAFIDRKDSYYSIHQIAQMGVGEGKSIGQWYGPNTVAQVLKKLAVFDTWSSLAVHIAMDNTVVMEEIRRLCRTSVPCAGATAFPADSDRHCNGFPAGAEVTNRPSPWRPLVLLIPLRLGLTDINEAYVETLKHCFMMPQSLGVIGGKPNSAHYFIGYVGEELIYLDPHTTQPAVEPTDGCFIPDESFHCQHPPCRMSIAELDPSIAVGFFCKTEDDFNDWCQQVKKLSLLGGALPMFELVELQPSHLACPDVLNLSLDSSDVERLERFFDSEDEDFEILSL
# [2] = biological target: Phospholipase A2 (Homo sapiens, UniProt P04054); type: functional;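 further: confirmatory dose-response counterscreen on phospholipase A2, testing hits that came from an ultra-high-throughput screen for ATG4B inhibitors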
# Chain of Phospholipase A2 (P04054 whole entry): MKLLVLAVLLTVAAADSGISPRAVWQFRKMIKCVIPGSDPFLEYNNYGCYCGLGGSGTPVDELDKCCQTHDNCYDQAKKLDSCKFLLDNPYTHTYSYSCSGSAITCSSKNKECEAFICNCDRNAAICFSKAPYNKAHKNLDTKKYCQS
# [3] = biological target: Protein Wnt-3a (Mus musculus, UniProt P27467); assay: Wnt3a-driven reporter signaling inhibition, dose response, selectivity assay for Gli-SUFU antagonist project, Wnt-LIGHT cells, luminescence (AID 651570); type: functional; conditions: read-out: IC50_Mean;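 further: Wnt-LIGHT reporter cells stimulated with conditioned medium from Wnt3a-producing cells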
# Chain of Protein Wnt-3a (P27467 whole entry, the tested form may be a part): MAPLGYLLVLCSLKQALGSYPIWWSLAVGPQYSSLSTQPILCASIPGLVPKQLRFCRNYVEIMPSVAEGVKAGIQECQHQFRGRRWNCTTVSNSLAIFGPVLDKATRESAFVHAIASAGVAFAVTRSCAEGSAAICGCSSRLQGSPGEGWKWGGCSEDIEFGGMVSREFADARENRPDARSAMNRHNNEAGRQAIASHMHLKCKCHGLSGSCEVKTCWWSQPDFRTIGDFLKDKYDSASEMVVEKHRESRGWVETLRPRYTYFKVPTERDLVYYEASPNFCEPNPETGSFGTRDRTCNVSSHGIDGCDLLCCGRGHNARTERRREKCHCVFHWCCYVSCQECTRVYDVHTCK
# [4] = off-target signal loss in HeLa-CEM21 co-culture – HeLa F-luc CTL cells, cherry-picked, counter-screen for HIV-1 Env fusion inhibitor project, dose response (AID 652040); type: functional, cell-based;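 further: potency for signal decrease marking cytotoxic or nonspecific inhibition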
# [5] = inhibitors of HIV Env-driven cell fusion, dose response, cherry-pick (AID 652057); type: functional, cell-based
# [6] = HepG2 cell cytotoxicity, dose response, cytotoxicity control for Shn3 inhibitor project, CellTiter-Glo, cherry-picked (AID 624134); type: functional, cell-based
# [7] = inhibitors of clade B AD8 Env fusion, dose response, cell-based, cherry-pick (AID 652062); type: functional;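 further: luciferase signal from cell-cell fusion driven by HIV-1 clade B AD8 Env; potency is for inhibitors of fusion seen as a drop in luminescence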
# [8] = Shn3 3'UTR reporter inhibitors, dose response, cell-based, Clone20 osteoblasts, firefly luciferase, cherry-picked (AID 624132); type: functional;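 further: firefly luciferase luminescence from reporter carrying the Shn3 3'UTR in osteoblasts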
# [9] = control 3'UTR Renilla luciferase suppression, dose response, counter-screen for Shn3 inhibitor project, cell-based, Clone20-Shn3RL, cherry-picked (AID 624133); type: functional
# [10] = biological target: T2, Orexin receptor type 2 (Homo sapiens, UniProt O43614); assay: Counterscreen assay for antagonists of the orexin 1 receptor (OX1R; HCRTR1): Homogeneous Time Resolved Fluorescence (HTRF)-based cell-based dose response assay for antagonists of the orexin 2 receptor (OX2R; HCRTR2), run by assay provider.; type: functional
# T2 sequence (O43614 whole entry): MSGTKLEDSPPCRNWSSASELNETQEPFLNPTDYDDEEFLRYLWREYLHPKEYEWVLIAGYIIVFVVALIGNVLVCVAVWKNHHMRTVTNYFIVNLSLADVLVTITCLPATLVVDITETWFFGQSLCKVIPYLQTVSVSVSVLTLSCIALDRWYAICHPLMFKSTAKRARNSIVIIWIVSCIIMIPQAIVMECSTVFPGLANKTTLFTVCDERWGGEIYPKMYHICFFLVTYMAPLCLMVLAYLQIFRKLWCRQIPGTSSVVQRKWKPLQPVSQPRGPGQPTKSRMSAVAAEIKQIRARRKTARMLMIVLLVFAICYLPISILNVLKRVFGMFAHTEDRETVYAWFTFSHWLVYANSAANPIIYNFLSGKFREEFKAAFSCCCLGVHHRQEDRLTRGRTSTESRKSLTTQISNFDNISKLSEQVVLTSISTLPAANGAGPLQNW
# [11] = biological target: T2, Orexin receptor type 2; assay: Counterscreen assay for antagonists of the orexin 1 receptor (OX1R; HCRTR1): Fluorescence-based cell-based dose response assay for antagonists of the orexin 2 receptor (OX2R; HCRTR2), run by assay provider.; type: functional
# [12] = biological target: T3, Orexin/Hypocretin receptor type 1 (Homo sapiens, UniProt O43613); assay: Fluorescence-based cell-based high throughput dose response assay for antagonists of the orexin 1 receptor (OX1R; HCRTR1). [Related pubchem assays (depositor defined):AID434989, AID435008, AID463079, AID485270, AID492963, AID492964, AID492965, AID493232, AID504717, AID504718]; type: functional
# T3 sequence (O43613 whole entry): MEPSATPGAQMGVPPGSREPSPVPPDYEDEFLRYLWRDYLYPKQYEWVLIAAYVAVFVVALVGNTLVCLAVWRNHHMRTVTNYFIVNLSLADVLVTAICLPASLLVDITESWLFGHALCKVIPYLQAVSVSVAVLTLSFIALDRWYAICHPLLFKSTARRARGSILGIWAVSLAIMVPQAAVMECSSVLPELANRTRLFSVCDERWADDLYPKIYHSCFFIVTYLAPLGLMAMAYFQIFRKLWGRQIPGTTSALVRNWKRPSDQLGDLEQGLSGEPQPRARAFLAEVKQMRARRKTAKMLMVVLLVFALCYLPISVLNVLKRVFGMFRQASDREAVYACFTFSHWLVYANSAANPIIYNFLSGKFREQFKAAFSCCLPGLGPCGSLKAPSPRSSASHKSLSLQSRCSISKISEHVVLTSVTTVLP
# [13] = biological target: T3, Orexin/Hypocretin receptor type 1; assay: Homogeneous Time Resolved Fluorescence (HTRF)-based cell-based high throughput dose response assay for antagonists of the orexin 1 receptor (OX1R; HCRTR1). [Related pubchem assays (depositor defined):AID434989, AID435008, AID463079, AID485270, AID492963, AID492964, AID492965, AID493232, AID504717, AID504718]; type: functional
# [14] = Counterscreen for antagonists of the orexin 1 receptor (OX1R; HCRTR1): Fluorescence-based cell-based high throughput dose response assay to identify antagonists of the parental CHO cell line. [Related pubchem assays (depositor defined):AID434989, AID435008, AID463079, AID485270, AID492963, AID492964, AID492965, AID493232, AID504699, AID504701]; type: functional
# [15] = system: CHO-K1; assay: Counterscreen for antagonists of the orexin 1 receptor (OX1R; HCRTR1): Homogeneous time resolved fluorescence (HTRF)-based cell-based dose response assay to identify antagonists of the parental CHO-K1 cell line. [Related pubchem assays (depositor defined):AID434989, AID435008, AID463079, AID485270, AID492963, AID492964, AID492965, AID493232, AID504699, AID504701]; type: functional; conditions: Cricetulus griseus;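 further: potency for inhibition of ATP-stimulated IP1 production as antagonists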
# [16] = biological target: T4, Interleukin-8 (Homo sapiens, UniProt P10145); assay: Dose Response confirmation of uHTS small molecule hits for cystic fibrosis induced NFkb Inhibitors in a PAF-induced IL8 counterscreen.; type: functional; conditions: read-out: IC50_Mean
# T4 sequence (P10145 whole entry): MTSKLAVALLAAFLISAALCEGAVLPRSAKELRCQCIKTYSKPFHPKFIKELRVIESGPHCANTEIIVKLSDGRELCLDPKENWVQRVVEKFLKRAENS
# [17] = biological target: Mitogen-activated protein kinase 10 (Homo sapiens, UniProt P53779); assay: Dose response biochemical screening assay for inhibitors of c-Jun N-Terminal Kinase 3 (JNK3). [Related pubchem assays: 746 ]
# Chain of Mitogen-activated protein kinase 10 (P53779 whole entry): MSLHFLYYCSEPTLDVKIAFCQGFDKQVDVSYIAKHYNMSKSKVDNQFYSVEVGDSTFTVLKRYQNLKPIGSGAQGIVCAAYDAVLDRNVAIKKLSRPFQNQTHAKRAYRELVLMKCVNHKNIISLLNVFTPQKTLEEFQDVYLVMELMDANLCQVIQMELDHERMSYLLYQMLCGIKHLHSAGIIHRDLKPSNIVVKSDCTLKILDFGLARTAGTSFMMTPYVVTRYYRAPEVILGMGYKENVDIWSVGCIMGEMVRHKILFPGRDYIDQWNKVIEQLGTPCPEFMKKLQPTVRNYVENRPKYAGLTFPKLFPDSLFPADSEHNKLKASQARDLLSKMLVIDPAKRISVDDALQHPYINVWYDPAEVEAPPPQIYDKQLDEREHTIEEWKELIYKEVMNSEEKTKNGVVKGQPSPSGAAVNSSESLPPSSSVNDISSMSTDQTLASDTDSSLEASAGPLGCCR
# [18] = biological target: T5, Methionyl-tRNA synthetase, putative (Trypanosoma brucei brucei, UniProt Q38C91); type: functional, Trypanosoma brucei brucei strain 927/4 GUTat10.1
# T5 sequence (Q38C91 whole entry): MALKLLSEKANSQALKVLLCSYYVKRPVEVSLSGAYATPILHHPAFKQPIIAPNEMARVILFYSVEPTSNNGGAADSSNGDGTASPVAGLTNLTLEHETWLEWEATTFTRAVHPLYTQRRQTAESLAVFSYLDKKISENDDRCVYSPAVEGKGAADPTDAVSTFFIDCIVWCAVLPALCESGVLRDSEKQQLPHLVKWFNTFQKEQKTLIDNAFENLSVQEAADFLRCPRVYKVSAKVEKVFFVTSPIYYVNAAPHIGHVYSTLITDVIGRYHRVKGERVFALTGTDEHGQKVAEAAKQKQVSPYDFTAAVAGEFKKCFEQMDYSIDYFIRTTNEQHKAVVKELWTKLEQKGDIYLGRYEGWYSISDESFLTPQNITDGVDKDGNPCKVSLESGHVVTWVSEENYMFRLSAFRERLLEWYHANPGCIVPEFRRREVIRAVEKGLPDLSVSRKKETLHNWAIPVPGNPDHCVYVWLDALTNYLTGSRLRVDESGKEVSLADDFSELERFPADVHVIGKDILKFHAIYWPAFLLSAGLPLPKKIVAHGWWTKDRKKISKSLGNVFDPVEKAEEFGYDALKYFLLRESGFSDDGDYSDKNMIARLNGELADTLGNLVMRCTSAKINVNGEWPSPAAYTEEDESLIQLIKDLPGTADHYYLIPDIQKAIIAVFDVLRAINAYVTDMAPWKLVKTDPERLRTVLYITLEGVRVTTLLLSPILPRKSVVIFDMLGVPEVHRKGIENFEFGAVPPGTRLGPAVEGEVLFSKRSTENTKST
# [19] = Counterscreen for inhibitors of Trypanosoma brucei methionyl tRNA synthetase (MetRS): Luminescence-based cell-based high throughput dose response assay to identify compounds that are cytotoxic to Jurkat human T lymphocyte cells.; type: functional
# [20] = biological target: T5, Methionyl-tRNA synthetase, putative; type: functional, Trypanosoma brucei brucei strain 927/4 GUTat10.1; remark: listed apart in the source
# [21] = biological target: T6, Aryl hydrocarbon receptor (Homo sapiens, UniProt P35869); conditions: Potency;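 further: confirmatory quantitative high-throughput screen measuring activation of the AhR signaling pathway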
# T6 sequence (P35869 whole entry): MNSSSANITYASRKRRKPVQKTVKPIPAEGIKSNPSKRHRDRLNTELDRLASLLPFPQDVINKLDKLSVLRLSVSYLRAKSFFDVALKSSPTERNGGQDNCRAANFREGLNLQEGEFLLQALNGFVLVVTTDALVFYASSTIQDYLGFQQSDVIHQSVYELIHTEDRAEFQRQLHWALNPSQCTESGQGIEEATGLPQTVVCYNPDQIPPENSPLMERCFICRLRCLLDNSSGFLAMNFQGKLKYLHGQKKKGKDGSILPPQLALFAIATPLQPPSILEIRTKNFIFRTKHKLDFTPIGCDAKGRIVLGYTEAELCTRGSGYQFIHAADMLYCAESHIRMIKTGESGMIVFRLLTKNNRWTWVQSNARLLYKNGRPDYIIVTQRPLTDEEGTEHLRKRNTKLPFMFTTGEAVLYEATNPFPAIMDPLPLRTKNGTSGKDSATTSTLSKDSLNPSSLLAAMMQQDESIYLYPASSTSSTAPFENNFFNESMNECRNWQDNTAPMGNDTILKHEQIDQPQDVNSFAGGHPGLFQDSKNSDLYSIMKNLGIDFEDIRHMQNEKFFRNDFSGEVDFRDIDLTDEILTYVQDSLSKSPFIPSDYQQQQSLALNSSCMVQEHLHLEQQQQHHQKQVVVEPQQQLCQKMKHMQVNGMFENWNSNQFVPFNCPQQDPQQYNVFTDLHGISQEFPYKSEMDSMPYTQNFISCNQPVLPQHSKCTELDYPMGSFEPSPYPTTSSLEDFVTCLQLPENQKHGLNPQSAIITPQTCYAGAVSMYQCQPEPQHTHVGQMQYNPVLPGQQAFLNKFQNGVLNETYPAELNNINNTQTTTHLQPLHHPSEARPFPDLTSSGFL
# [22] = biological target: Potassium voltage-gated channel subfamily KQT member 2 (Rattus norvegicus, UniProt O88943); assay: KCNQ2 potassium channel inhibitors, dose response, cell-based, automated electrophysiology, set II, rat KCNQ2 (AID 588637); type: functional
# Chain of Potassium voltage-gated channel subfamily KQT member 2 (O88943 whole entry): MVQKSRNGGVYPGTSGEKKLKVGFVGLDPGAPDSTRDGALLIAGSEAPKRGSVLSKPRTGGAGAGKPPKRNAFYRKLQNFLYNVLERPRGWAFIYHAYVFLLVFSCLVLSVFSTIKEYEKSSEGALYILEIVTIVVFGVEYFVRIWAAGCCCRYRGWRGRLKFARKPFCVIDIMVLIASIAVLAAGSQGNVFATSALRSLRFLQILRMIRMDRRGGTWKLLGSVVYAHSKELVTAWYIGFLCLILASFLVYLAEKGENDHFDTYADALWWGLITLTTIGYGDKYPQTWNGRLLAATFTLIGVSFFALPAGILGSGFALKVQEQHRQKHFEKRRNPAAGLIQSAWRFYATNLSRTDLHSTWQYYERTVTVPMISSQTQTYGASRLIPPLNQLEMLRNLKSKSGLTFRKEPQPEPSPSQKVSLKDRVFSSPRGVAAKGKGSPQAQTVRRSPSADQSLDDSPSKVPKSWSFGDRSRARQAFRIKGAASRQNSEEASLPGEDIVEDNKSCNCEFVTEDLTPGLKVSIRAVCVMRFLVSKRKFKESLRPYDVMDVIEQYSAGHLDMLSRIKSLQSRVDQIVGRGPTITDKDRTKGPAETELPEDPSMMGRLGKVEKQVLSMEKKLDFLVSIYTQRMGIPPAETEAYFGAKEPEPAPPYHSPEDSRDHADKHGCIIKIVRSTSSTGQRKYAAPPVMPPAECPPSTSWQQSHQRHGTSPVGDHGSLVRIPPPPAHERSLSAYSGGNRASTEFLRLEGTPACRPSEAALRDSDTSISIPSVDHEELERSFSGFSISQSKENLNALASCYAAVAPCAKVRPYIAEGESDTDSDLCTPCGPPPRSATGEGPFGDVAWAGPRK
structure (smiles),measurement,setting,value
COC(=O)CSc1nc2cc(Cl)ccc2c(=O)n1C1CCCC1,IC50,[1],5.43 µM (active)
same,IC50,[2],11.4 µM (active)
NC(=O)c1ccccc1OCC(=O)N1CCC(Cc2ccccc2)CC1,IC50,[3],3.28 µM (active)
O=C(CNCCc1ccc(Cl)cc1Cl)NCc1ccco1,IC50,[1],18.7 µM (active)
same,IC50,[2],12.3 µM (active)
CCC(C)NS(=O)(=O)c1ccc(S(=O)(=O)N2CCCC3(CCCCC3)C2)cc1 (stereo unspecified),AC50,[4],58.9 µM (active)
same,IC50,[3],5.16 µM (active)
same,AC50,[5],21.4 µM (active)
same,AC50,[6],6.54 µM (active)
same,AC50,[7],11.7 µM (active)
same,AC50,[8],3.44 µM (active)
same,AC50,[9],5.9 µM (active)
Cc1ccc2nc(Nc3ccccc3)c(/C=N/O)c(=O)n2c1,IC50,[10],> 50 µM (inactive)
same,IC50,[11],32.5 µM (inactive)
same,IC50,[12],9.96 µM (active)
same,IC50,[13],5.11 µM (active)
same,IC50,[14],> 49.8 µM (inactive)
same,IC50,[15],> 66.3 µM (inactive)
COc1ccc(-c2cnc(N)nc2-c2ccc(OC)cc2O)cc1,IC50,[16],14.6 µM (inactive)
same,IC50,[17],19.9 µM (not active)
O=C(Cc1ccc(Nc2nc3cc(Br)ccc3[nH]2)cc1)NCCc1cccs1,IC50,[18],0.163 µM (active)
same,IC50,[19],27.8 µM (inactive)
same,IC50,[20],0.286 µM (active)
COC(=O)[C@H](Cc1c[nH]c2ccccc12)NC(=O)CCCc1c[nH]c2ccccc12,IC50,[10],6.41 µM (active)
same,IC50,[11],17.2 µM (inactive)
same,IC50,[12],9.04 µM (active)
same,IC50,[13],15.3 µM (inactive)
same,IC50,[14],17.4 µM (inactive)
same,IC50,[15],> 66.2 µM (inactive)
CC1=C(C(=O)Nc2ccccc2)SCCO1 [CARBOXIN],AC50,[21],50.1 µM (inconclusive)
CCc1sc(C(=O)Nc2ccccc2N2CCOCC2)cc1C,IC50,[22],5.75 µM (active)
COc1cccc(C2c3[nH]c4ccccc4c3C[C@H]3C(=O)N(C4CC4)CC(=O)N23)c1 (stereo partly specified),IC50,[18],118 µM (inactive)
same,IC50,[19],83.2 µM (inactive)
same,IC50,[20],36.8 µM (inactive)
Cc1ccc2c(c1[N+](=O)[O-])C(=O)c1ccccc1C2=O,AC50,[21],17.8 µM (inconclusive)
CCC(C(=O)Nc1ccccc1N1CCCC1)c1ccccc1 (stereo unspecified),IC50,[22],0.161 µM (active)
